Reference: PubChem BioAssay (NCI)
Values joined by “and” are separate entries in the source; they are usually repeats but may differ in a detail not shown here. Equal values may be shown once.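 Step 1: Grow cells in 96-well plates. Step 2: Expose to compound for 48 hours at 5 concentrations. Step 3: Interpolate endpoints linearly; if unreached, use highest concentration. At the GI50, growth is halved. At the TGI there is no net growth.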

Assays:
Assay in all cases: growth of human tumour cells (NCI), 48 h
A549 NSCLC = system: A549 NSCLC
BT-549 breast = system: BT-549 breast
CAKI-1 renal = system: CAKI-1 renal
HCT-15 colon = system: HCT-15 colon
MDA-N = system: MDA-N
RPMI-8226 leukemia = system: RPMI-8226 leukemia
SF-295 CNS = system: SF-295 CNS
SK-OV-3 ovarian = system: SK-OV-3 ovarian
SN12C renal = system: SN12C renal
UACC-257 melanoma = system: UACC-257 melanoma
UO-31 renal = system: UO-31 renal

Structure (SMILES) | TGI (A549 NSCLC) [µM] | TGI (BT-549 breast) [µM] | TGI (CAKI-1 renal) [µM] | TGI (HCT-15 colon) [µM] | TGI (MDA-N) [µM] | TGI (RPMI-8226 leukemia) [µM] | TGI (SF-295 CNS) | TGI (SK-OV-3 ovarian) [µM] | TGI (SN12C renal) [µM] | TGI (UACC-257 melanoma) [µM] | TGI (UO-31 renal) [µM] | GI50 (UO-31 renal) [µM] | GI50 (BT-549 breast)
OCc1ccc2c(c1)CC1(Cc3ccccc3C1)C2 | 71.2 | 24.1 | 50.5 | > 100 | 20 | 46.4 | 40.6 µM | 84.8 | 45.8 | 43 | 29.1 |  | 
CSc1nnnc2ccccc12 | > 100 | > 100 | > 100 | > 100 | > 100 | > 100 | > 100 µM | > 100 | > 100 | > 100 | > 100 |  | 
NS(=O)(=O)c1ccc(-c2ccc([As](=O)(O)O)cc2)cc1 | > 100 | > 100 | > 100 | > 100 | > 100 | > 100 | > 100 µM | > 100 | > 100 | > 100 | > 100 |  | 
O=C(CC(=O)N1N=C(c2ccccc2)C(N=Nc2ccc(S(=O)(=O)CCOS(=O)(=O)O)cc2)C1=O)Nc1ccc(Cl)cc1 (stereo not given) | > 100 | > 100 | > 100 | > 100 | > 100 | > 100 | > 100 µM | > 100 | > 100 | > 100 | > 100 |  | 
NS(=O)(=O)c1nnc(NS(=O)(=O)c2cccc3cccnc23)s1 | > 100 | > 100 | > 100 | > 100 | > 100 | > 100 | > 100 µM | > 100 | > 100 | > 100 | > 100 |  | 
N#Cc1sc2c(c1OC(=O)c1ccco1)c(=O)n(-c1ccccc1)c(=S)n2-c1ccccc1 | > 100 | > 100 | > 100 | 52.4 | 47.1 | 59.3 | > 100 µM | > 100 | > 100 | > 100 | 44.1 |  | 
O=S(=O)(O)c1ccc(O)c(N=Nc2c(O)ccc3ccccc23)c1 | > 100 | > 100 | > 100 | > 100 | > 100 | > 100 | > 100 µM | > 100 | > 100 | > 100 | > 100 |  | 
Cc1cc2nc3c(C#N)c(C)c(CCCl)c(Cl)n3c2cc1C | 17.7 | 7.15 | 9.43 | 3.85 | 6.12 | 5.49 | 13.8 µM | > 56.6 | 3.63 | 5.02 | 7.25 |  | 
Cc1ccc(/C=c2\c(=O)[nH]c3nc4ccccc4c(=O)n23)cc1 | > 100 | 60.3 | > 100 | > 100 | 62.2 | > 100 | > 100 µM | > 100 | > 100 | > 100 | > 100 |  | 
C=C1c2c(n(S(=O)(=O)c3ccccc3)c3ccccc23)[C@@]2(C(=O)OC)CC3C=CC2N1C3 | > 100 | > 100 | > 100 | > 100 | > 100 | > 100 | > 100 µM | > 100 | > 100 | > 100 |  |  | 
NC(=Nc1ccccc1)N/N=C/c1c[nH]c2ccccc12 | 15.4 | 16.9 | 22.9 | 10.1 | 0.0405 | 46 | 0.423 µM | 4.14 | 15.6 | 12.2 | 12.9 |  | 
Cc1cc(N(CCC#N)CCC#N)ccc1/C(N=Nc1ccc(C(=O)O)cc1)=N\NC(=O)c1ccccc1 | > 100 | > 100 | > 100 | > 100 | > 100 | > 100 | > 100 µM | > 100 | > 100 | > 100 | > 100 |  | 
O=[N+]([O-])c1c(O)c2nonc2c2nn(-c3ccccc3)nc12 | > 100 | > 100 | > 100 | > 100 | > 100 | > 100 | > 100 µM | > 100 | > 100 | > 100 | > 100 |  | 
COC(=O)NC(Cc1ccccc1)NC(=O)OC(C)(C)C (stereo not given) | > 100 | > 100 | > 100 | > 100 | > 100 | > 100 | > 100 µM | > 100 | > 100 | > 100 | > 100 |  | 
CCOC(=O)c1ccc2nc3n(c2c1)C(c1c(F)cccc1F)SC3 (stereo not given) | > 100 | > 100 | > 100 | > 100 | > 100 | > 100 | > 100 µM | > 100 | > 100 | > 100 | > 100 |  | 
CC1(C)C2CC3C(C)(C2)C31c1cc(Cl)ccc1N (stereo not given) | 24.2 | 30 | 29.1 | 23 | 24.7 | 30 | 28.6 µM | 29 | 27.5 | 26.4 | 26.8 |  | 
CCn1c(CCCc2nc3c([nH]2)c(=O)n(C)c(=O)n3C)nc2c1c(=O)n(C)c(=O)n2C | > 100 | > 100 | > 100 | > 100 | > 100 | > 100 | > 100 µM | > 100 | > 100 | > 100 | > 100 |  | 
CC1(C)CCCCCC(O)C(O)CCC(C)(C)C1=O (stereo not given) | > 100 | > 100 | > 100 | > 100 | > 100 | > 100 | > 100 µM | > 100 | > 100 | > 100 | > 100 |  | 
COc1ccc(NC(=O)CSC(=O)c2ccccc2)c(SCCSSCCSc2cc(OC)ccc2NC(=O)CSC(=O)c2ccccc2)c1 | > 100 | > 100 | > 100 | > 100 | > 100 | > 100 | > 100 µM | > 100 | > 100 | > 100 | > 100 |  | 
CCCCCCCCCCCC(=O)N(CCCCCCCCC)CC(O)C(O)C(OC1OC(CO)C(O)C(O)C1O)C(O)CO (stereo not given) | 43.5 | 36.9 | 35.5 | 34.5 | 38.4 | 57.1 | 40 µM |  | 36.1 | 31.4 | 30.9 |  | 
CCOP(=O)(OCC)/C(=C/n1c(=S)[nH]c2ccccc21)C(=O)OC | > 100 | > 100 | > 100 | > 52.2 | > 100 | > 100 | > 100 µM | > 100 | > 100 | > 100 | > 100 | > 100 | 
O=C(O)C(Cc1ccccc1)Cc1ccccc1 | > 100 | > 100 | > 100 | > 100 | > 100 | > 100 | > 100 µM | > 100 | > 100 | > 100 | > 100 |  | 
COC(=O)C1=C(C)NC(C)=C(C(=O)OC)C1c1cccc(/[N+]([O-])=C/c2ccccc2)c1 | > 100 | 30.3 | 32.3 | 44.9 | 31.6 | > 100 | > 100 µM | > 100 |  | 40.5 | > 100 |  | 
CCOC(=O)c1nc2ccccc2nc1Nc1ccc(C(=O)OC)s1 | > 100 | > 100 | > 100 | > 100 | > 100 | > 100 | > 100 µM |  | > 100 | > 100 | > 100 |  | 
CCOC(=O)c1sc2nc(SC)nc3c2c1NCN3C | > 100 | > 100 | > 100 | > 100 | > 100 | > 100 | > 100 µM | 38.3 | > 100 | > 100 | 37.6 |  | 
COCC(C#N)NC1CC(OC2CC(O)(C(=O)CO)Cc3c(O)c4c(c(O)c32)C(=O)c2c(OC)cccc2C4=O)OC(C)C1O (stereo not given) |  | 0.653 | 0.285 | 12.8 | 0.349 | 1.15 | 1.9 µM | 10.6 | 2.02 | 0.368 | 2.77 |  | 
N#Cc1ccc(-c2ccc(Cl)cc2)n(C2OC(CO)C(O)C(O)C2O)c1=S (stereo not given) | > 100 | > 100 | > 100 | > 100 | > 100 | > 100 | > 100 µM and 17.9 µM |  | > 100 | > 100 | > 100 |  | > 100 µM and 24.9 µM
COc1cc(C(c2ccccc2)N2C(=O)CC[C@H]2C(=O)O)cc(OC)c1OC (stereo not given in full) | > 100 | > 100 | > 100 | > 100 | > 100 | > 100 | > 100 µM | > 100 | > 100 | > 100 | > 100 |  | 
CCCCCCc1ccc(CCCCCCCC(=O)O)o1 | > 100 | > 100 | > 100 | > 100 | > 100 | > 100 | > 100 µM | > 100 | > 100 | > 100 | > 100 |  | 
COc1ccc(C2N(c3ccc(C)c(N=C=O)c3)C(=O)N3C(c4ccc(OC)cc4)N(c4ccc(C)c(N=C=O)c4)C(=O)N23)cc1 (stereo not given) | > 100 | > 100 | > 100 | > 100 | > 100 | > 100 | > 100 µM |  | > 100 | > 100 | > 100 |  | 
